# In patent US20240287065A1, “COMPOUND AS CDK KINASE INHIBITOR AND USE THEREOF” (TYK MEDICINES (ZHENGZHOU) , INC., priority 2021, published 2024):
# Tested on: HCC1806 cells
# Experiment: Cell proliferation inhibition assay (MTT, 7 days)
# Type: cell-based
# Conditions: Homo sapiens, HCC1806, 168 h, HCC1086 [sic], 7 days incubation
# Method: (§1) MCF7, T47D, OVCAR3 and HCC1806 cells were inoculated in 96-well plates at 3000, 3000, 2500, and 2000 cells/well, respectively, and cultured overnight at 37° C., 5% C02 incubator.
# (§2) 1. […] Then 2.5 μl of the stock solution was dissolved in 497.5 μl of DMSO-free medium, and then a 3-fold serial gradient dilution was performed with 0.1% DMSO medium for a total of 9 concentrations, and the concentrations of the compounds after dilution were as follows: • 10000 nM, 3333.33 nM, 1111.11 nM, 370.34 nM, 123.45 nM, 41.15 nM, 13.72 nM, 4.57 nM, and 1.52 nM. • b) After fully mixing, 20 μL of compound solutions were added into cell culture plates containing 80 μL of cells respectively, with 4 replicate wells for each concentration. • c) The cells were transferred to an incubator and incubated for 7 days, and exchanged with fresh culture medium containing the same concentration of compounds when incubated to day 4. 2. MTT assay • a) The cell culture plate was taken out and 10 μL of 5 mg/ml MTT was added to the hood. • b) The cell culture plate was put back into the incubator and continued to incubate for 3 hours. • c) The cell culture plate was taken out to remove the culture medium, and 100 μL of isopropanol (0.4 mMHCl, 0.4% NP40) was added to the plate, and the plate was shaken on a shaker at room temperature for 30 minutes and read at 570 nm. 3. Data analysis
# (§3) The survival rate (% Cell Survival) was calculated using the following equation:
# (§4) % Cell Survival=100%×(OD_Sample−OD_LCave)/(OD_HC−OD_LCave) • OD_HC: 0.1‰ cell readings of DMSO control • OD_Sample: cell readings of compound addition • OD_LC: readings of blank medium • Analyed by Prizm: Dose-response-Inhibition Log(inhibitor) vs response (three parameters for the best fit)
# (§5) IC50 (nM) values were calculated by concentration-response curve fitting.
row,Compound,IC50
1,CCn1cc(S(=O)(=O)N2CCC(Nc3ncc4cc(OC(F)F)c(=O)n([C@@H]5CCC[C@@]5(C)O)c4n3)CC2)cn1 [Example 39],≤ 50 nM
2,COc1ccc(S(=O)(=O)N2CCC(Nc3ncc4cc(OC(F)F)c(=O)n([C@@H]5CCC[C@@]5(C)O)c4n3)CC2)cn1 [Example 36],≤ 50 nM
3,CN1CCN(c2ccc(Nc3ncc4cc(OC(F)F)c(=O)n([C@@H]5CCC[C@@]5(C)O)c4n3)nc2)CC1 [Example 60],≤ 50 nM
4,C[C@@]1(O)CCC[C@H]1n1c(=O)c(OC(F)F)cc2cnc(NC3CCN(S(=O)(=O)c4cccc(C(F)(F)F)c4)CC3)nc21 [Example 20],200 to 51000 nM
5,C[C@@]1(O)CCC[C@H]1n1c(=O)c(OC(F)F)cc2cnc(NC3CCN(S(=O)(=O)C4CCC(=O)CC4)CC3)nc21 [Example 53],200 to 51000 nM
6,CCS(=O)(=O)N1CCC(Nc2ncc3cc(OC(F)F)c(=O)n([C@@H]4CCC[C@@]4(C)O)c3n2)CC1 [Example 44],50 to 5200 nM
7,C[C@@]1(O)CCC[C@H]1n1c(=O)c(OC(F)F)cc2cnc(NC3CCN(S(=O)(=O)C4CCCC4)CC3)nc21 [Example 48],50 to 5200 nM
8,C[C@@]1(O)CCC[C@H]1n1c(=O)c(OC(F)F)cc2cnc(NC3CCN(S(=O)(=O)CCC#N)CC3)nc21 [Example 33],200 to 51000 nM

# Tested on: MCF7 cells
# Experiment: Cell proliferation inhibition assay (MTT, 7 days)
# Type: cell-based
# Conditions: Homo sapiens, 168 h, 7 days incubation
# Method: as §1, §2, §3, §4, §5
row,Compound,IC50
1,CCn1cc(S(=O)(=O)N2CCC(Nc3ncc4cc(OC(F)F)c(=O)n([C@@H]5CCC[C@@]5(C)O)c4n3)CC2)cn1 [Example 39],≤ 50 nM
2,COc1ccc(S(=O)(=O)N2CCC(Nc3ncc4cc(OC(F)F)c(=O)n([C@@H]5CCC[C@@]5(C)O)c4n3)CC2)cn1 [Example 36],≤ 50 nM
3,CN1CCN(c2ccc(Nc3ncc4cc(OC(F)F)c(=O)n([C@@H]5CCC[C@@]5(C)O)c4n3)nc2)CC1 [Example 60],≤ 50 nM
4,C[C@@]1(O)CCC[C@H]1n1c(=O)c(OC(F)F)cc2cnc(NC3CCN(S(=O)(=O)c4cccc(C(F)(F)F)c4)CC3)nc21 [Example 20],200 to 51000 nM
5,C[C@@]1(O)CCC[C@H]1n1c(=O)c(OC(F)F)cc2cnc(NC3CCN(S(=O)(=O)C4CCC(=O)CC4)CC3)nc21 [Example 53],200 to 51000 nM
6,CCS(=O)(=O)N1CCC(Nc2ncc3cc(OC(F)F)c(=O)n([C@@H]4CCC[C@@]4(C)O)c3n2)CC1 [Example 44],≤ 50 nM
7,C[C@@]1(O)CCC[C@H]1n1c(=O)c(OC(F)F)cc2cnc(NC3CCN(S(=O)(=O)C4CCCC4)CC3)nc21 [Example 48],50 to 5200 nM
8,C[C@@]1(O)CCC[C@H]1n1c(=O)c(OC(F)F)cc2cnc(NC3CCN(S(=O)(=O)CCC#N)CC3)nc21 [Example 33],50 to 5200 nM

# Tested on: OVCAR3 cells
# Experiment: Cell proliferation inhibition assay (MTT, 7 days)
# Type: cell-based
# Conditions: Homo sapiens, OVCAR-3, 168 h, 7 days incubation
# Method: as §1, §2, §3, §4, §5
row,Compound,IC50
1,COc1ccc(S(=O)(=O)N2CCC(Nc3ncc4cc(OC(F)F)c(=O)n([C@@H]5CCC[C@@]5(C)O)c4n3)CC2)cn1 [Example 36],≤ 50 nM
2,CN1CCN(c2ccc(Nc3ncc4cc(OC(F)F)c(=O)n([C@@H]5CCC[C@@]5(C)O)c4n3)nc2)CC1 [Example 60],≤ 50 nM
3,C[C@@]1(O)CCC[C@H]1n1c(=O)c(OC(F)F)cc2cnc(NC3CCN(S(=O)(=O)c4cccc(C(F)(F)F)c4)CC3)nc21 [Example 20],50 to 5200 nM
4,C[C@@]1(O)CCC[C@H]1n1c(=O)c(OC(F)F)cc2cnc(NC3CCN(S(=O)(=O)C4CCC(=O)CC4)CC3)nc21 [Example 53],≤ 50 nM
5,CCS(=O)(=O)N1CCC(Nc2ncc3cc(OC(F)F)c(=O)n([C@@H]4CCC[C@@]4(C)O)c3n2)CC1 [Example 44],≤ 50 nM
6,C[C@@]1(O)CCC[C@H]1n1c(=O)c(OC(F)F)cc2cnc(NC3CCN(S(=O)(=O)C4CCCC4)CC3)nc21 [Example 48],≤ 50 nM
7,C[C@@]1(O)CCC[C@H]1n1c(=O)c(OC(F)F)cc2cnc(NC3CCN(S(=O)(=O)CCC#N)CC3)nc21 [Example 33],50 to 5200 nM

# Tested on: T47D cells
# Experiment: Cell proliferation inhibition assay (MTT, 7 days)
# Type: cell-based
# Conditions: Homo sapiens, 168 h, 7 days incubation
# Method: as §1, §2, §3, §4, §5
row,Compound,IC50
1,COc1ccc(S(=O)(=O)N2CCC(Nc3ncc4cc(OC(F)F)c(=O)n([C@@H]5CCC[C@@]5(C)O)c4n3)CC2)cn1 [Example 36],≤ 50 nM
2,CN1CCN(c2ccc(Nc3ncc4cc(OC(F)F)c(=O)n([C@@H]5CCC[C@@]5(C)O)c4n3)nc2)CC1 [Example 60],≤ 50 nM
3,C[C@@]1(O)CCC[C@H]1n1c(=O)c(OC(F)F)cc2cnc(NC3CCN(S(=O)(=O)c4cccc(C(F)(F)F)c4)CC3)nc21 [Example 20],50 to 5200 nM
4,C[C@@]1(O)CCC[C@H]1n1c(=O)c(OC(F)F)cc2cnc(NC3CCN(S(=O)(=O)C4CCC(=O)CC4)CC3)nc21 [Example 53],50 to 5200 nM
5,CCS(=O)(=O)N1CCC(Nc2ncc3cc(OC(F)F)c(=O)n([C@@H]4CCC[C@@]4(C)O)c3n2)CC1 [Example 44],≤ 50 nM
6,C[C@@]1(O)CCC[C@H]1n1c(=O)c(OC(F)F)cc2cnc(NC3CCN(S(=O)(=O)C4CCCC4)CC3)nc21 [Example 48],50 to 5200 nM
7,C[C@@]1(O)CCC[C@H]1n1c(=O)c(OC(F)F)cc2cnc(NC3CCN(S(=O)(=O)CCC#N)CC3)nc21 [Example 33],50 to 5200 nM

# Molecular target: CDK2/CycE1 (Homo sapiens, UniProt P24941)
# Experiment: Enzyme activity test
# Type: biochemical
# Conditions: not given
# Method: (§6) • 1. The test compounds and pabocinib were configured into a […] solution of DMSO; • 2. 20 nL of stock solution was transferred to a 384-well plate using Echo550. DMSO was used as a blank control.
# (§7) • 1. according to the following table to prepare 1.3X enzyme solution containing enzyme, substrate and cofactor; • 2. 15 μL of 1.3X enzyme solution was added to each well and the mixture was incubated for 30 min at room temperature; • 3. 5 μL of ATP solution was added to initiate the reaction. The final volume of each well was 20 μL; • 4. After incubation for 150 min at room temperature, 75 μL of termination buffer solution was added to terminate the experiment; • 5. The samples were analyzed using EZ reader.
# (§8) The % inhibition was calculated using the following equation
# (§9) The one treated with DMSO is the positive control (PC)
# (§10) The one without enzyme is the negative control (NC)
# (§11) % Inhibition=100-100*((CRPC−CRsample)/(CRPC−CRNC))
row,Compound,IC50
1,COc1ccc(S(=O)(=O)N2CCC(Nc3ncc4cc(OC(F)F)c(=O)n([C@@H]5CCC[C@@]5(C)O)c4n3)CC2)cn1 [Example 36],< 10 nM
2,CCS(=O)(=O)N1CCC(Nc2ncc3cc(OC(F)F)c(=O)n([C@@H]4CCC[C@@]4(C)O)c3n2)CC1 [Example 44],< 10 nM
3,C[C@@]1(O)CCC[C@H]1n1c(=O)c(OC(F)F)cc2cnc(NC3CCN(S(=O)(=O)C4CCCC4)CC3)nc21 [Example 48],< 10 nM
4,C[C@@]1(O)CCC[C@H]1n1c(=O)c(OC(F)F)cc2cnc(NC3CCN(S(=O)(=O)CCC#N)CC3)nc21 [Example 33],< 10 nM

# Molecular target: CDK4/CycD3 (Homo sapiens, UniProt P11802)
# Sequence (P11802 whole entry, species assumed): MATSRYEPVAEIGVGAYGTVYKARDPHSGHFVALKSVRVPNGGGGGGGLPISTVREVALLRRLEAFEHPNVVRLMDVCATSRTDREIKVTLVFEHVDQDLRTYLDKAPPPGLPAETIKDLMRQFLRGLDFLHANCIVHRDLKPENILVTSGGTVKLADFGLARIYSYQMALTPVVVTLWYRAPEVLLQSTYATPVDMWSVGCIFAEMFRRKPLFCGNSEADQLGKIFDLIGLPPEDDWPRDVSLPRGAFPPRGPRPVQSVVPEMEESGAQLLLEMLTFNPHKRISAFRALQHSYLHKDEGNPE
# Sequence (P30281 whole entry partner, species assumed): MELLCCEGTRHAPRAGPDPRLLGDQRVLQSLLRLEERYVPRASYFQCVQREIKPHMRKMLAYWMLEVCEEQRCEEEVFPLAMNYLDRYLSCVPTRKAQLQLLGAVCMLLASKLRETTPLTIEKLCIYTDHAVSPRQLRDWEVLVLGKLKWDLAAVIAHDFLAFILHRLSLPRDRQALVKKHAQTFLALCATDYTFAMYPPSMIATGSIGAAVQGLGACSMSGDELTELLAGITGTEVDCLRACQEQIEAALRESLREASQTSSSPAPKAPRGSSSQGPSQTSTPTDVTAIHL
# Experiment: Enzyme activity test
# Type: biochemical
# Conditions: not given
# Method: as §6, §7, §8, §9, §10, §11
row,Compound,IC50
1,COc1ccc(S(=O)(=O)N2CCC(Nc3ncc4cc(OC(F)F)c(=O)n([C@@H]5CCC[C@@]5(C)O)c4n3)CC2)cn1 [Example 36],< 10 nM
2,CCS(=O)(=O)N1CCC(Nc2ncc3cc(OC(F)F)c(=O)n([C@@H]4CCC[C@@]4(C)O)c3n2)CC1 [Example 44],< 10 nM
3,C[C@@]1(O)CCC[C@H]1n1c(=O)c(OC(F)F)cc2cnc(NC3CCN(S(=O)(=O)C4CCCC4)CC3)nc21 [Example 48],< 10 nM
